In patent US20090162313A1, “High-Molecular Weight Conjugate of Podophyllotoxins” (priority 2006, published 2009):

Columns and labels:
[1] = system: Mouse colon cancer, Colon 26; assay: Antitumor action of compounds 2 and 3, subcutaneously transplanted tumor, relative tumor volume; type: in vivo; conditions: 15 mg/kg i.v. for 5 consecutive days (total 75 mg/kg), female CDF1 mice
Procedure: (§1) Mouse colon cancer, Colon 26, maintained by serial subcutaneous subculture in mice, was minced into about 2 mm-square fragments, and the fragments were transplanted subcutaneously on the dorsal part of female CDF1 mice with a trocar. […] The control group means a group to which the drug was not administered. POD, purchased from Sigma-Aldrich Company, was diluted with dimethylsulfoxide and a 5% glucose solution for injection and administered for 5 consecutive days from the administration initiation day. After the administration, the major axis (L mm) and the minor axis (W mm) of the tumor were measured using a caliper, and the tumor volume was calculated by the formula: (L×W^2)/2. […] The changes of the body weight during this period of time is also shown in Table 2 as the relative body weight based on the body weight on the day of administration.

[2] = Relative body weight of tumor-bearing mice, Test Example 4; type: in vivo, mouse; conditions: 15 mg/kg i.v. for 5 consecutive days (total 75 mg/kg), female CDF1 mice
Procedure: as §1

[3] = system: Mouse colon cancer, Colon 26; assay: Antitumor effect of compound 1, subcutaneously transplanted tumor, relative tumor volume; type: in vivo; conditions: 90 mg/kg once i.v., female CDF1 mice
Procedure: (§2) Mouse colon cancer, Colon 26, maintained by serial subcutaneous subculture in mice, was minced into about 2-mm square fragments, and the fragments were subcutaneously transplanted on the dorsal part of female CDF1 mice with a trocar. […] The control group means a group to which the drug was not administered. Compound 1 was dissolved in a 5% glucose solution for injection and used. As for […] injection (manufactured by Nippon Kayaku Co., Ltd.) was diluted with a 5% glucose solution for injection and used. After the administration, the major axis (L mm) and the minor axis (W mm) of the tumor were measured using a caliper, and the tumor volume was calculated by the formula: (L×W^2)/2. […] The changes of the body weight during this period of time is also shown in Table 1 as the relative body weight based on the body weight on the day of administration.

[4] = Relative body weight of tumor-bearing mice, Test Example 3; type: in vivo, mouse; conditions: 90 mg/kg once i.v., female CDF1 mice
Procedure: as §2

[5] = day 0 after administration initiation day
[6] = day 3 after administration initiation day
[7] = day 5 after administration initiation day
[8] = day 8 after administration initiation day

Row | Structure (SMILES) | Relative tumor volume [1, 5] | Relative tumor volume [1, 6] | Relative tumor volume [1, 7] | Relative tumor volume [1, 8] | Relative body weight [2, 5] | Relative body weight [2, 6] | Relative body weight [2, 7] | Relative body weight [2, 8] | Relative tumor volume ([3]; day 0 after administration) | Relative tumor volume ([3]; day 4 after administration) | Relative tumor volume ([3]; day 8 after administration) | Relative body weight ([4]; day 0 after administration) | Relative body weight ([4]; day 4 after administration) | Relative body weight ([4]; day 8 after administration)
1 | COc1cc([C@@H]2c3cc4c(cc3[C@H](O)[C@H]3COC(=O)[C@H]23)OCO4)cc(OC)c1OC [POD, podophyllotoxin] | 1.00 | 1.58 | 1.79 | 6.08 | 1.00 | 1.01 | 0.96 | 0.98 |  |  |  |  |  | 
2 | COc1cc([C@@H]2c3cc4c(cc3[C@@H](O[C@@H]3O[C@@H]5CO[C@@H](C)O[C@H]5[C@H](O)[C@H]3O)[C@H]3COC(=O)[C@H]23)OCO4)cc(OC)c1O [ETP, etoposide] |  |  |  |  |  |  |  |  | 1.00 | 1.17 | 3.79 | 1.00 | 0.87 | 0.97
